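Grown in 96-well plates, cells were treated for 48 hours with each compound at five concentrations. Insufficient inhibition: endpoint recorded as highest concentration tested. GI50 is the concentration that inhibits growth by half.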 The source made the active and inactive calls. Cut-off read from the data, not from the text of the source: active = GI50 up to about 1.1 µM and inactive = higher.
Key:
Assay in all cases: growth of human tumour cells (NCI), 48 h
SK-OV-3 = tested on: SK-OV-3
OVCAR-4 = tested on: OVCAR-4
HT-29 = tested on: HT-29
MDA-MB-231 = tested on: MDA-MB-231
K562 = tested on: K562
786-0 = tested on: 786-0
NCI-H460 = tested on: NCI-H460
HCT-15 = tested on: HCT-15
NCI/ADR-RES = tested on: NCI/ADR-RES
PC-3 = tested on: PC-3
SK-MEL-5 = tested on: SK-MEL-5
COLO 205 = tested on: COLO 205
DU-145 = tested on: DU-145
ACHN = tested on: ACHN
CAKI-1 = tested on: CAKI-1
KM12 = tested on: KM12
HOP-62 = tested on: HOP-62
UACC-62 = tested on: UACC-62
IGROV-1 = tested on: IGROV-1
RPMI-8226 = tested on: RPMI-8226

| SMILES | GI50 (SK-OV-3) | GI50 (OVCAR-4) | GI50 (HT-29) | GI50 (MDA-MB-231) | GI50 (K562) | GI50 (786-0) | GI50 (NCI-H460) | GI50 (HCT-15) | GI50 (NCI/ADR-RES) | GI50 (PC-3) | GI50 (SK-MEL-5) | GI50 (COLO 205) | GI50 (DU-145) | GI50 (ACHN) | GI50 (CAKI-1) | GI50 (KM12) | GI50 (HOP-62) | GI50 (UACC-62) | GI50 (IGROV-1) | GI50 (RPMI-8226) |
| --- | --- | --- | --- | --- | --- | --- | --- | --- | --- | --- | --- | --- | --- | --- | --- | --- | --- | --- | --- | --- |
| O=S(=O)(N/C(=N\O)Nc1ccc(Cl)cc1)c1cc(C(F)(F)F)cc(C(F)(F)F)c1 | 18.6 µM (inactive) | 15 µM (inactive) | 19 µM (inactive) | 18.4 µM (inactive) | 29.9 µM (inactive) | 19.3 µM (inactive) | 26.4 µM (inactive) | 19.9 µM | 24.9 µM (inactive) | 17.5 µM (inactive) | 18 µM (inactive) | 18.6 µM (inactive) | 21.3 µM (inactive) | 17.3 µM (inactive) | 16.9 µM (inactive) | 19.7 µM (inactive) | 18.7 µM (inactive) | 16.7 µM (inactive) | 16.9 µM (inactive) | – |
| COC(=O)c1sc(=S)sc1SCc1ccccc1CSc1sc(=S)sc1C(=O)OC | 46.6 µM (inactive) | > 100 µM (inactive) | > 100 µM (inactive) | > 100 µM (inactive) | 38.5 µM (inactive) | 46.1 µM (inactive) | > 100 µM (inactive) | > 100 µM | > 100 µM (inactive) | > 100 µM (inactive) | > 100 µM (inactive) | > 100 µM (inactive) | > 100 µM (inactive) | > 100 µM (inactive) | > 100 µM (inactive) | > 100 µM (inactive) | 85.7 µM (inactive) | > 100 µM (inactive) | > 100 µM (inactive) | – |
| COC(=O)/C=C1\C(CO[Si](C)(C)C(C)(C)C)OC(n2cc(C)c(=O)n(C)c2=O)C1O[Si](C)(C)C(C)(C)C (stereo not given) | > 100 µM (inactive) | – | > 100 µM (inactive) | > 100 µM (inactive) | > 100 µM (inactive) | > 100 µM (inactive) | – | > 100 µM | > 100 µM (inactive) | 48.5 µM (inactive) | 69.7 µM (inactive) | > 100 µM (inactive) | > 100 µM (inactive) | > 100 µM (inactive) | – | > 100 µM (inactive) | > 100 µM (inactive) | > 100 µM (inactive) | > 100 µM (inactive) | 78 µM (inactive) |
| Cc1nc2ccccc2c(=O)n1NC(=O)c1ccccc1[N+](=O)[O-] | > 100 µM (inactive) | > 100 µM (inactive) | > 100 µM (inactive) | > 100 µM (inactive) | > 100 µM (inactive) | > 100 µM (inactive) | > 100 µM (inactive) | > 100 µM | > 100 µM (inactive) | > 100 µM (inactive) | > 100 µM (inactive) | – | > 100 µM (inactive) | > 100 µM (inactive) | – | > 100 µM (inactive) | > 100 µM (inactive) | > 100 µM (inactive) | > 100 µM (inactive) | > 100 µM (inactive) |
| [N-]=[N+]=Nc1ccc(NCCCCCC(=O)ON2C(=O)CCC2=O)c([N+](=O)[O-])c1 | > 100 µM (inactive) | > 100 µM (inactive) | > 100 µM (inactive) | 77.1 µM (inactive) | 22.4 µM (inactive) | > 100 µM (inactive) | 61.7 µM (inactive) | > 100 µM | 31.1 µM (inactive) | 28.5 µM (inactive) | 41.1 µM (inactive) | > 100 µM (inactive) | > 100 µM (inactive) | 49.1 µM (inactive) | 34.4 µM (inactive) | 46.2 µM (inactive) | 72.9 µM (inactive) | 33.1 µM (inactive) | > 100 µM (inactive) | – |
| Clc1ccc2nc3c(c(-c4ccccc4)nn3-c3ccccc3)c(-c3ccccc3)c2c1 | > 100 µM (inactive) | > 100 µM (inactive) | > 100 µM (inactive) | > 100 µM (inactive) | > 100 µM (inactive) | > 100 µM (inactive) | > 100 µM (inactive) | > 100 µM | > 100 µM (inactive) | > 100 µM (inactive) | > 100 µM (inactive) | > 100 µM (inactive) | > 100 µM (inactive) | > 100 µM (inactive) | – | > 100 µM (inactive) | > 100 µM (inactive) | > 100 µM (inactive) | > 100 µM (inactive) | > 100 µM (inactive) |
| CC1(C)CC(=O)C2=C(C1)NC(SCC(=O)O)=C(C#N)C2c1ccc(Br)cc1 (stereo not given) | > 100 µM (inactive) | > 100 µM (inactive) | > 100 µM (inactive) | > 100 µM (inactive) | – | > 100 µM (inactive) | > 100 µM (inactive) | > 100 µM | > 100 µM (inactive) | > 100 µM (inactive) | > 100 µM (inactive) | > 100 µM (inactive) | > 100 µM (inactive) | > 100 µM (inactive) | > 100 µM (inactive) | > 100 µM (inactive) | > 100 µM (inactive) | > 100 µM (inactive) | > 100 µM (inactive) | – |
| CCC(C)c1cnc(CC(C)C)c(=O)[nH]1 (stereo not given) | > 100 µM (inactive) | > 100 µM (inactive) | > 100 µM (inactive) | > 100 µM (inactive) | > 100 µM (inactive) | > 100 µM (inactive) | > 100 µM (inactive) | > 100 µM | – | > 100 µM (inactive) | > 100 µM (inactive) | > 100 µM (inactive) | > 100 µM (inactive) | > 100 µM (inactive) | > 100 µM (inactive) | > 100 µM (inactive) | > 100 µM (inactive) | > 100 µM (inactive) | > 100 µM (inactive) | > 100 µM (inactive) |
| CC(C)C1=CC23CCC4C(C)(C(=O)O)CCCC4(C)C2CC1C1C(=O)N(c2ccccc2N2C(=O)C4C5CC6C7(C)CCCC(C)(C(=O)O)C7CCC6(C=C5C(C)C)C4C2=O)C(=O)C13 (stereo not given) | – | 18 µM (inactive) | 3.32 µM (inactive) | 11.6 µM (inactive) | 6.58 µM (inactive) | 14.4 µM (inactive) | – | 14.3 µM | – | 3.23 µM (inactive) | 5.83 µM (inactive) | 4.57 µM (inactive) | 9.4 µM (inactive) | 10.2 µM (inactive) | – | 3.09 µM (inactive) | 4.67 µM (inactive) | – | – | 7.64 µM (inactive) |
| CCn1c(SCC(=O)NNC(=S)Nc2ccc(F)cc2)nc2ccccc2c1=O | > 100 µM (inactive) | 63 µM (inactive) | > 100 µM (inactive) | > 100 µM (inactive) | 74.5 µM (inactive) | > 100 µM (inactive) | 0.472 µM (active) | 74.6 µM | > 100 µM (inactive) | 66.1 µM (inactive) | > 100 µM (inactive) | > 100 µM (inactive) | > 100 µM (inactive) | > 100 µM (inactive) | – | > 100 µM (inactive) | > 100 µM (inactive) | 58.7 µM (inactive) | > 100 µM (inactive) | 63.5 µM (inactive) |
| c1ccc2c(c1)CC1COc3ccccc3C1O2 (stereo not given) | > 100 µM (inactive) | – | 33.4 µM (inactive) | 47.4 µM (inactive) | > 100 µM (inactive) | 50.7 µM (inactive) | – | 40.2 µM | 47.8 µM (inactive) | 70.6 µM (inactive) | 17.4 µM (inactive) | > 100 µM (inactive) | > 100 µM (inactive) | 75.9 µM (inactive) | 71.3 µM (inactive) | 44.2 µM (inactive) | 56.6 µM (inactive) | > 100 µM (inactive) | 86.1 µM (inactive) | 27.5 µM (inactive) |
| N[C@H](C(=O)O)[C@@H]1CC(Br)=NO1 | 8.05 µM (inactive) | 21.9 µM (inactive) | 10.1 µM (inactive) | > 100 µM (inactive) | 20.6 µM (inactive) | 13 µM (inactive) | 4.31 µM (inactive) | 6.38 µM | 39.7 µM (inactive) | 23.6 µM (inactive) | 14.5 µM (inactive) | 33.3 µM (inactive) | 5.57 µM (inactive) | 8.22 µM (inactive) | 18.4 µM (inactive) | 10.6 µM (inactive) | 12.2 µM (inactive) | 27.7 µM (inactive) | 19 µM (inactive) | – |
| CC(C)SC(NC(=O)C1C(C)(C)CCC1(C)C)C(=O)O (stereo not given) | > 100 µM (inactive) | – | – | > 100 µM (inactive) | > 100 µM (inactive) | > 100 µM (inactive) | > 100 µM (inactive) | > 100 µM | > 100 µM (inactive) | > 100 µM (inactive) | > 100 µM (inactive) | > 100 µM (inactive) | > 100 µM (inactive) | > 100 µM (inactive) | – | – | > 100 µM (inactive) | > 100 µM (inactive) | > 100 µM (inactive) | > 100 µM (inactive) |
| CCCCCCC1OC23OC1CCC2C(O)CCC3O (stereo not given) | – | > 100 µM (inactive) | > 100 µM (inactive) | > 100 µM (inactive) | > 100 µM (inactive) | > 100 µM (inactive) | > 100 µM (inactive) | > 100 µM | > 100 µM (inactive) | > 100 µM (inactive) | > 100 µM (inactive) | > 100 µM (inactive) | > 100 µM (inactive) | 97.7 µM (inactive) | > 100 µM (inactive) | > 100 µM (inactive) | > 100 µM (inactive) | > 100 µM (inactive) | > 100 µM (inactive) | > 100 µM (inactive) |
| C/C=C/C(C#N)(/C=C/c1ccccc1)OP1(=O)OC(c2ccccc2)C(C)N1C (stereo not given) | 25.8 µM (inactive) | – | 19.7 µM (inactive) | 17.5 µM (inactive) | 16.4 µM (inactive) | 17.1 µM (inactive) | 17.9 µM (inactive) | – | – | 17 µM (inactive) | 16.9 µM (inactive) | 17.2 µM (inactive) | 30 µM (inactive) | 26.9 µM (inactive) | 23.3 µM (inactive) | 19 µM (inactive) | 19.4 µM (inactive) | 17.7 µM (inactive) | 16.4 µM (inactive) | 15.2 µM (inactive) |

Reference: ChEMBL document CHEMBL1201862, “PubChem BioAssay data set” (2004)
